This test addresses T1, human GLP-1 receptor (Homo sapiens, UniProt P43220).
T1 construct: expressed in transfected cells; host or cells: BHK cells (parent BHKTS13), clone FCW467-12A/KZ10-1, with CRE luciferase
In words: GLP-1 receptor binding, 125I-GLP-1 displacement SPA on isolated membranes. The settings on record: displacement of 125I-GLP-1 from membranes; read-out: IC50 GLP-1R. In outline: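 SPA displacement of 125I-GLP-1(7-36)NH2 from membranes of BHK cells expressing human GLP-1 receptor, with WGA beads, in 50 mM HEPES, 5 mM EGTA, 5 mM MgCl2, 0.005% Tween 20, pH 7.4. Incubated 2 h at 30°C; IC50 by non-linear regression, run at ≤0.001% or 2.0% final serum albumin.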

Numbered stars: 1 amine (or outer) side, 2 acyl side, 3 side chain; on linkers, the order of the positions; unused ones are H or OH. Bridge positions count the residues as written; N and C are the ends. Square brackets hold non-standard residues; d marks the D form. Side chains are listed from the residue outwards. Peptide text beside a SMILES is read from it. I, II: the chains in the order shown. * marks the point of attachment. C18 diacid = O=C(O)CCCCCCCCCCCCCCCCC(=O)*; γGlu = O=C(O)[C@H](CCC(=O)[*:2])N[*:1]; Ac4c = NC1(C(=O)O)CCC1; Aib = CC(C)(N)C(=O)O

A word on the IC50: it is the concentration at which inhibition is half-maximal.

T1 sequence (P43220 24-463): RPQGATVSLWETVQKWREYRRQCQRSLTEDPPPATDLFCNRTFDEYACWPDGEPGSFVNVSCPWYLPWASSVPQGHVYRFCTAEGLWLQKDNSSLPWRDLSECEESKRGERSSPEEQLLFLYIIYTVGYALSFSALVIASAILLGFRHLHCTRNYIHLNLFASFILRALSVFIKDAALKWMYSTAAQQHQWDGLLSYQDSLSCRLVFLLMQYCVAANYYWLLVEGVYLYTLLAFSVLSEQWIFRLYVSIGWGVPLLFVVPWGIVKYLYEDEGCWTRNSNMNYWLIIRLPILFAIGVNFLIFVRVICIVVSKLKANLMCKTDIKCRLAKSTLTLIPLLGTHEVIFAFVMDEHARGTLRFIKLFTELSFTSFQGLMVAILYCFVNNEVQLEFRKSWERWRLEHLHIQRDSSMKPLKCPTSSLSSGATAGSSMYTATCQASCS

As to `CC(C)C[C@H](NC(=O)[C@H](Cc1ccc(O)cc1)NC(=O)[C@H](CCCCN)NC(=O)[C@H](CO)NC(=O)[C@H](CC(C)C)NC(=O)[C@H](CC(=O)O)NC(=O)[C@H](CO)NC(=O)[C@@H](NC(=O)[C@H](Cc1ccccc1)NC(=O)[C@@H](NC(=O)CNC(=O)[C@H](Cc1c[nH]cn1)NC(=O)C(C)(C)NC(=O)[C@@H](N)Cc1c[nH]cn1)[C@@H](C)O)[C@@H](C)O)C(=O)N[C@@H](CCC(=O)O)C(=O)N[C@@H](CO)C(=O)N[C@@H](CCCCN)C(=O)N[C@@H](CCCNC(=N)N)C(=O)N[C@@H](C)C(=O)N[C@@H](CCCNC(=N)N)C(=O)N[C@@H](CCC(=O)O)C(=O)N[C@@H](Cc1ccccc1)C(=O)N[C@H](C(=O)N[C@@H](CCC(N)=O)C(=O)N[C@@H](Cc1c[nH]c2ccccc12)C(=O)N[C@@H](CC(C)C)C(=O)N[C@@H](CC(C)C)C(=O)N[C@@H](CCCCNC(=O)CC[C@H](NC(=O)CC[C@H](NC(=O)CC[C@H](NC(=O)CCCCCCCCCCCCCCCCC(=O)O)C(=O)O)C(=O)O)C(=O)O)C(=O)N[C@H](C(N)=O)[C@@H](C)O)C(C)C` [Example 34, N^ε28-[(4S)-4-carboxy-4-[[(4S)-4-carboxy-4-[[(4S)-4-carboxy-4-(17-carboxyheptadecanoylamino)butanoyl]amino]butanoyl]amino]butanoyl]-[Aib2,His3,Leu10,Glu15,Lys17,Arg20,Glu21,Leu27,Lys28]-Glucagon amide] (H-H[Aib]HGTFTSDLSKYLESKRAREFVQWLLK([γGlu-γGlu-γGlu-C18 diacid])T-NH2; N-terminus assumed), the IC50 came out at 0.2 nM.

For `CC(C)C[C@H](NC(=O)[C@H](Cc1ccc(O)cc1)NC(=O)[C@H](CCCCN)NC(=O)[C@H](CO)NC(=O)[C@H](CC(C)C)NC(=O)[C@H](CC(=O)O)NC(=O)[C@H](CO)NC(=O)[C@@H](NC(=O)[C@H](Cc1ccccc1)NC(=O)[C@@H](NC(=O)CNC(=O)[C@H](CCC(N)=O)NC(=O)C1(NC(=O)[C@@H](N)Cc2c[nH]cn2)CCC1)[C@@H](C)O)[C@@H](C)O)C(=O)N[C@@H](CCC(=O)O)C(=O)N[C@@H](CO)C(=O)N[C@@H](CCCCN)C(=O)N[C@@H](CCCNC(=N)N)C(=O)N[C@@H](C)C(=O)N[C@@H](CCCNC(=N)N)C(=O)N[C@@H](CCC(=O)O)C(=O)N[C@@H](Cc1ccccc1)C(=O)N[C@H](C(=O)N[C@@H](CCC(N)=O)C(=O)N[C@@H](Cc1c[nH]c2ccccc12)C(=O)N[C@@H](CC(C)C)C(=O)N[C@@H](CC(C)C)C(=O)N[C@@H](CCCCNC(=O)CNC(=O)[C@H](CO)NC(=O)[C@H](CCC(=O)O)NC(=O)CNC(=O)[C@H](CO)NC(=O)CC[C@H](NC(=O)CC[C@H](NC(=O)CCCCCCCCCCCCCCCCC(=O)O)C(=O)O)C(=O)O)C(=O)N[C@H](C(N)=O)[C@@H](C)O)C(C)C` [Example 36, N^ε28-[2-[[(2S)-2-[[(2S)-4-carboxy-2-[[2-[[(2S)-2-[[(4S)-4-carboxy-4-[[(4S)-4-carboxy-4-(17-carboxyheptadecanoylamino)butanoyl]amino]butanoyl]amino]-3-hydroxypropanoyl]amino]acetyl]amino]butanoyl]amino]-3-hydroxypropanoyl]amino]acetyl]-[Acb2,Leu10,Glu15,Lys17, Arg20,Glu21,Leu27,Lys28]-Glucagon amide] (I: H-H[Ac4c]QGTFTSDLSKYLESKRAREFVQWLLKT-NH2 / II: {C18 diacid-γGlu-γGlu}-SGESG; amide I:28-II:C; N-terminus assumed), the IC50 amounted to 0.2 nM.

The values are drawn from patent US9474790B2, “Stable, protracted GLP-1/glucagon receptor co-agonists for medical use” (Novo Nordisk A/S, priority 2013, dated 2016).
